Experimental data reported in ChEMBL document CHEMBL3045120, “Synthesis, characterization, and evaluation of some novel 4(3H)-quinazolinone derivatives as anti-inflammatory and analgesic agents” (2013).

What was measured:
Type in all cases: functional
Design in all cases: scale not given: the % may be the effect or the level left
Rattus norvegicus [1] = assay: Analgesic activity inRattus norvegicus albino (rat) assessed as reduction of minimum electric shock-induced pain at 100 mg/kg after 1 hr relative to control
Rattus norvegicus [2] = assay: Anti-inflammatory activity inRattus norvegicus albino (rat) assessed as reduction of cotton pellet-induced dry weight of granuloma at 100 mg/kg, po measured after 7 days relative to control
Rattus norvegicus [3] = assay: Anti-inflammatory activity inRattus norvegicus albino (rat) assessed as reduction of carrageenan-induced paw edema at 100 mg/kg, po administered 1 hr prior to carrageenan challenge measured after 3 hr by mercury plethysmographic analysis relative to control
Rattus norvegicus [4] = assay: Analgesic activity inRattus norvegicus albino (rat) assessed as reduction of minimum electric shock-induced pain at 100 mg/kg after 2 hr relative to control
Rattus norvegicus [5] = assay: Analgesic activity inRattus norvegicus albino (rat) assessed as reduction of minimum electric shock-induced pain at 5 mg/kg after 1 hr relative to control
Rattus norvegicus [6] = assay: Analgesic activity inRattus norvegicus albino (rat) assessed as reduction of minimum electric shock-induced pain at 5 mg/kg after 2 hr relative to control
Rattus norvegicus [7] = assay: Anti-inflammatory activity inRattus norvegicus albino (rat) assessed as reduction of carrageenan-induced paw edema at 5 mg/kg, po administered 1 hr prior to carrageenan challenge measured after 3 hr by mercury plethysmographic analysis relative to control
Rattus norvegicus [8] = assay: Anti-inflammatory activity inRattus norvegicus albino (rat) assessed as reduction of cotton pellet-induced dry weight of granuloma at 5 mg/kg, po measured after 7 days relative to control

`O=C1OC(c2ccccc2)=N/C1=C/c1nc2ccc(I)cc2c(=O)n1-c1ccc(Cl)cc1` showed an Activity (Rattus norvegicus [1]) of 60.9%, an Activity (Rattus norvegicus [2]) of 72.6% and an Activity (Rattus norvegicus [3]) of 49.6%. For the same molecule, the Activity (Rattus norvegicus [4]) was 63.3%.

With `CCOc1ccccc1-n1c(N)c(C#N)c(-c2nc3ccc(I)cc3c(=O)n2-c2ccc(F)cc2)c(C#N)c1=O` the Activity (Rattus norvegicus [1]) was 45.1%, the Activity (Rattus norvegicus [2]) was 52.2% and the Activity (Rattus norvegicus [3]) was 20.7%. It also gave an Activity (Rattus norvegicus [4]) of 53.1%.

Work on `O=c1c2cc(I)ccc2nc(C2CC(c3ccccc3)=NN2)n1-c1ccc(Cl)cc1` (centres undefined) yielded an Activity (Rattus norvegicus [1]) of 55.4%, an Activity (Rattus norvegicus [2]) of 71.9% and an Activity (Rattus norvegicus [3]) of 50.4%. It also gave an Activity (Rattus norvegicus [4]) of 59.2%.

For `O=C(/C=C/c1nc2ccc(I)cc2c(=O)n1-c1ccc(F)cc1)c1ccccc1`, the Activity (Rattus norvegicus [1]) was 46.9%, the Activity (Rattus norvegicus [2]) was 41.8% and the Activity (Rattus norvegicus [3]) was 28.3%. It also gave an Activity (Rattus norvegicus [4]) of 54.1%.

Work on `CC(=O)c1c(-c2nc3ccc(I)cc3c(=O)n2-c2ccc(Cl)cc2)[nH][nH]c1=O` yielded an Activity (Rattus norvegicus [1]) of 47.9%, an Activity (Rattus norvegicus [2]) of 72.2% and an Activity (Rattus norvegicus [3]) of 48.3%. The Activity (Rattus norvegicus [4]) was 61.9%.

For `Cc1c(/N=C/c2nc3ccc(I)cc3c(=O)n2-c2ccc(F)cc2)c(=O)n(-c2ccccc2)n1C`, the Activity (Rattus norvegicus [1]) was 64.8%, the Activity (Rattus norvegicus [2]) was 73.5% and the Activity (Rattus norvegicus [3]) was 53.5%. For the same molecule, the Activity (Rattus norvegicus [4]) was 65.6%.

`Cc1c(/N=C/c2nc3ccc(I)cc3c(=O)n2-c2ccc(Cl)cc2)c(=O)n(-c2ccccc2)n1C` was tested, and the Activity (Rattus norvegicus [1]) was 53.7%, the Activity (Rattus norvegicus [2]) was 60.7% and the Activity (Rattus norvegicus [3]) was 47.4%. The Activity (Rattus norvegicus [4]) was 54.2%.

Work on `O=C1NC(=S)S/C1=C/c1nc2ccc(I)cc2c(=O)n1-c1ccc(F)cc1` yielded an Activity (Rattus norvegicus [1]) of 57.9%, an Activity (Rattus norvegicus [2]) of 67.3% and an Activity (Rattus norvegicus [3]) of 44.8%. For the same molecule, the Activity (Rattus norvegicus [4]) was 61.3%.

`O=C(N/N=C/c1nc2ccc(I)cc2c(=O)n1-c1ccc(F)cc1)c1ccncc1` gave an Activity (Rattus norvegicus [1]) of 57.1%, an Activity (Rattus norvegicus [2]) of 66.7% and an Activity (Rattus norvegicus [3]) of 45.3%. For the same molecule, the Activity (Rattus norvegicus [4]) was 64.3%.

`CCOc1ccccc1/N=C/c1nc2ccc(I)cc2c(=O)n1-c1ccc(F)cc1` was tested, and the Activity (Rattus norvegicus [1]) was 39.3%, the Activity (Rattus norvegicus [2]) was 50.2% and the Activity (Rattus norvegicus [3]) was 38.9%. For the same molecule, the Activity (Rattus norvegicus [4]) was 56.1%.

Molecule `Cc1c(N(C)CS(=O)(=O)[O-])c(=O)n(-c2ccccc2)n1C.[Na+]` [DIPYRONE SODIUM] has an Activity (Rattus norvegicus [5]) of 82.9% and an Activity (Rattus norvegicus [6]) of 85.7%.

For `COc1ccc2c(c1)c(CC(=O)O)c(C)n2C(=O)c1ccc(Cl)cc1` [INDOMETHACIN], the Activity (Rattus norvegicus [7]) was 78.3% and the Activity (Rattus norvegicus [8]) was 75.2%.
